For data set [1], the system named is recombinant NL4-3 virus (nef section replaced with Renilla luciferase gene) in MT-2 cells. Briefly: HIV cell culture assay (antiviral activity, luciferase readout). It counts as cell-based. The note with it: Renilla, NL43, MT-2 cells infected for 4-5 days with recombinant NL4-3 Renilla luciferase virus, serial dilutions of compound. The method, boiled down: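 EC50 was derived by median-effect curve fitting of luciferase activity. The signal comes from MT-2 cells infected for 4–5 days with 293T-produced NL4-3 reporter virus, nef partly replaced by Renilla luciferase, in the presence of serially diluted compound.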

Data set [2] can be described thus: Compound cytotoxicity, XTT-based colorimetric assay. The format is cell-based. The conditions noted are these: human, uninfected MT2 cells, day 4, XTT. The procedure, abridged: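 Run under the antiviral-assay protocol but without virus. Viability was read on day 4 and CC50 values were derived from the readout.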

For orientation: EC50 means the concentration at which the effect is half-maximal. Usually CC50 stands for the concentration that lowers cell viability or growth by half. On to `Cc1ncc(-c2ccc3c(=O)n(-c4ccc(Cl)c5c(NS(=O)(=O)C6CC6)nn(CC(F)F)c45)c([C@H](Cc4cc(F)cc(F)c4)NC(=O)Cn4nc(C(F)F)c5c4C(F)(F)[C@@H]4C[C@H]54)nc3c2)cn1` [Example 157, N-((S)-1-(3-(4-chloro-3-(cyclopropanesulfonamido)-1-(2,2-difluoroethyl)-1H-indazol-7-yl)-7-(2-methylpyrimidin-5-yl)-4-oxo-3,4-dihydroquinazolin-2-yl)-2-(3,5-difluorophenyl)ethyl)-2-((3bS,4aR)-3-(difluoromethyl)-5,5-difluoro-3b,4,4a,5-tetrahydro-1H-cyclopropa[3,4]cyclopenta[1,2-c]pyrazol-1-yl)acetamide], for which, in data set [1], the EC50 is 0.06 nM. For the same compound, the CC50 at 4 day in data set [2] is above 500 nM.

In the case of `COc1cccc(-c2ccc3c(=O)n(-c4ccc(Cl)c5c(NS(C)(=O)=O)nn(C)c45)c([C@H](Cc4cc(F)cc(F)c4)NC(=O)Cn4nc(C(F)F)c5c4C(F)(F)[C@@H]4C[C@H]54)nc3c2)n1` (atropisomer, axis not shown; (aR)) [Example 46, N-((S)-1-(3-(4-chloro-1-methyl-3-(methylsulfonamido)-1H-indazol-7-yl)-7-(6-methoxypyridin-2-yl)-4-oxo-3,4-dihydroquinazolin-2-yl)-2-(3,5-difluorophenyl)ethyl)-2-((3bS,4aR)-3-(difluoromethyl)-5,5-difluoro-3b,4,4a,5-tetrahydro-1H-cyclopropa[3,4]cyclopenta[1,2-c]pyrazol-1-yl)acetamide], in data set [1], the EC50 came out at 0.56 nM. The same compound gave a half-maximal cytotoxic concentration (CC50) at 4 day in data set [2] above 1000 nM.

Consider `COc1ccc(-c2ccc3c(=O)n(-c4ccc(Cl)c5c(NS(C)(=O)=O)nn(C)c45)c([C@H](Cc4cc(F)cc(F)c4)NC(=O)Cn4nc(C(F)F)c5c4C(F)(F)[C@@H]4C[C@H]54)nc3c2)c(CO)c1` [Example 179, N-((S)-1-(3-(4-chloro-1-methyl-3-(methylsulfonamido)-1H-indazol-7-yl)-7-(2-(hydroxymethyl)-4-methoxyphenyl)-4-oxo-3,4-dihydroquinazolin-2-yl)-2-(3,5-difluorophenyl)ethyl)-2-((3bS,4aR)-3-(difluoromethyl)-5,5-difluoro-3b,4,4a,5-tetrahydro-1H-cyclopropa[3,4]cyclopenta[1,2-c]pyrazol-1-yl)acetamide], for which, in data set [1], the EC50 worked out at 0.235 nM. In data set [2], this compound returned a CC50 at 4 day above 500 nM.

For the compound `Cc1ncc(-c2ccc3c(=O)n(-c4ccc(Cl)c5c(NS(C)(=O)=O)nn(C)c45)c([C@H](Cc4cc(F)cc(F)c4)NC(=O)Cn4nc(C(F)F)c5c4C(F)(F)[C@@H]4C[C@H]54)nc3c2)cn1` (atropisomer, axis not shown; (aR)) [Example 130, N-((S)-1-(3-(4-chloro-1-methyl-3-(methylsulfonamido)-1H-indazol-7-yl)-7-(2-methylpyrimidin-5-yl)-4-oxo-3,4-dihydroquinazolin-2-yl)-2-(3,5-difluorophenyl)ethyl)-2-((3bS,4aR)-3-(difluoromethyl)-5,5-difluoro-3b,4,4a,5-tetrahydro-1H-cyclopropa[3,4]cyclopenta[1,2-c]pyrazol-1-yl)acetamide], in data set [1], the EC50 amounted to 0.03 nM. Besides, in data set [2], the CC50 at 4 day is above 500 nM.

On to `CS(=O)(=O)Nc1nn(CC(F)F)c2c(-n3c([C@H](Cc4cc(F)cc(F)c4)NC(=O)Cn4nc(C(F)F)c5c4C(F)(F)[C@@H]4C[C@H]54)nc4cc(-c5ccccc5S(C)(=O)=O)ccc4c3=O)ccc(Cl)c12` [Example 176, N-((S)-1-(3-(4-chloro-1-(2,2-difluoroethyl)-3-(methylsulfonamido)-1H-indazol-7-yl)-7-(2-(methylsulfonyl)phenyl)-4-oxo-3,4-dihydroquinazolin-2-yl)-2-(3,5-difluorophenyl)ethyl)-2-((3bS,4aR)-3-(difluoromethyl)-5,5-difluoro-3b,4,4a,5-tetrahydro-1H-cyclopropa[3,4]cyclopenta[1,2-c]pyrazol-1-yl)acetamide], for which the EC50 in data set [1] came to 0.066 nM. Also, the CC50 at 4 day in data set [2] was above 500 nM.

`Cn1nc(NS(C)(=O)=O)c2c(Cl)ccc(-n3c([C@H](Cc4cc(F)cc(F)c4)NC(=O)Cn4nc(C(F)F)c5c4C(F)(F)[C@@H]4C[C@H]54)nc4cc(-c5ccc(S(=O)(=O)N6CCOCC6)cc5)ccc4c3=O)c21` (atropisomer, axis not shown; (aR)) [Example 91, N-((S)-1-(3-(4-chloro-1-methyl-3-(methylsulfonamido)-1H-indazol-7-yl)-7-(4-(morpholinosulfonyl)phenyl)-4-oxo-3,4-dihydroquinazolin-2-yl)-2-(3,5-difluorophenyl)ethyl)-2-((3bS,4aR)-3-(difluoromethyl)-5,5-difluoro-3b,4,4a,5-tetrahydro-1H-cyclopropa[3,4]cyclopenta[1,2-c]pyrazol-1-yl)acetamide]: in data set [1], the EC50 came to 0.39 nM. The CC50 at 4 day in data set [2] is above 1000 nM.

Regarding `Cn1nc(NS(C)(=O)=O)c2c(Cl)ccc(-n3c([C@H](Cc4cc(F)cc(F)c4)NC(=O)Cn4nc(C(F)F)c5c4C(F)(F)[C@@H]4C[C@H]54)nc4cc(-c5ccc(C(C)(C)C)cc5)ccc4c3=O)c21` [Example 192, N-((S)-1-(7-(4-(tert-butyl)phenyl)-3-(4-chloro-1-methyl-3-(methylsulfonamido)-1H-indazol-7-yl)-4-oxo-3,4-dihydroquinazolin-2-yl)-2-(3,5-difluorophenyl)ethyl)-2-((3bS,4aR)-3-(difluoromethyl)-5,5-difluoro-3b,4,4a,5-tetrahydro-1H-cyclopropa[3,4]cyclopenta[1,2-c]pyrazol-1-yl)acetamide], the concentration for a half-maximal effect (EC50) in data set [1] came to 5.1 nM. In data set [2], this compound came in with a CC50 at 4 day above 1000 nM.

As to `Cc1cc(C)nc(-c2ccc3c(=O)n(-c4ccc(Cl)c5c(NS(C)(=O)=O)nn(C)c45)c([C@H](Cc4cc(F)cc(F)c4)NC(=O)Cn4nc(C(F)(F)F)c5c4C(F)(F)[C@@H]4C[C@H]54)nc3c2)n1` [Example 141, N-((S)-1-(3-(4-chloro-1-methyl-3-(methylsulfonamido)-1H-indazol-7-yl)-7-(4,6-dimethylpyrimidin-2-yl)-4-oxo-3,4-dihydroquinazolin-2-yl)-2-(3,5-difluorophenyl)ethyl)-2-((3bS,4aR)-5,5-difluoro-3-(trifluoromethyl)-3b,4,4a,5-tetrahydro-1H-cyclopropa[3,4]cyclopenta[1,2-c]pyrazol-1-yl)acetamide], in data set [1], the EC50 amounted to 0.11 nM. The same compound returned a CC50 at 4 day in data set [2] above 500 nM.

In the case of `Cc1cc(Cl)ccc1-c1ccc2c(=O)n(-c3ccc(S(=O)(=O)N4CCOCC4)cc3)c([C@H](Cc3cc(F)cc(F)c3)NC(=O)Cn3nc(C(F)F)c4c3C(F)(F)[C@@H]3C[C@H]43)nc2c1` [Example 15, N-((S)-1-(7-(4-chloro-2-methylphenyl)-3-(4-(morpholinosulfonyl)phenyl)-4-oxo-3,4-dihydroquinazolin-2-yl)-2-(3,5-difluorophenyl)ethyl)-2-((3bS,4aR)-3-(difluoromethyl)-5,5-difluoro-3b,4,4a,5-tetrahydro-1H-cyclopropa[3,4]cyclopenta[1,2-c]pyrazol-1-yl)acetamide], in data set [1], the EC50 came to 43 nM. This compound displayed a CC50 at 4 day in data set [2] above 1000 nM.

In the case of `COc1c(F)cc(-c2ccc3c(=O)n(-c4ccc(Cl)c5c(NS(C)(=O)=O)nn(C)c45)c([C@H](Cc4cc(F)cc(F)c4)NC(=O)Cn4nc(C(F)F)c5c4C(F)(F)[C@@H]4C[C@H]54)nc3c2)cc1F` (atropisomer, axis not shown; (aR)) [Example 70, N-((S)-1-(3-(4-chloro-1-methyl-3-(methylsulfonamido)-1H-indazol-7-yl)-7-(3,5-difluoro-4-methoxyphenyl)-4-oxo-3,4-dihydroquinazolin-2-yl)-2-(3,5-difluorophenyl)ethyl)-2-((3bS,4aR)-3-(difluoromethyl)-5,5-difluoro-3b,4,4a,5-tetrahydro-1H-cyclopropa[3,4]cyclopenta[1,2-c]pyrazol-1-yl)acetamide], the EC50 in data set [1] is 0.92 nM. In data set [2], this compound had a CC50 at 4 day above 1000 nM.

On to `Cc1ccccc1-c1ccc2c(=O)n(-c3ccc(Cl)c4c(NS(C)(=O)=O)nn(C)c34)c([C@H](Cc3cc(F)cc(F)c3)NC(=O)Cn3nc(C(F)F)c4c3C(F)(F)[C@@H]3C[C@H]43)nc2c1` (atropisomer, axis not shown; (aR)) [Example 88, N-((S)-1-(3-(4-chloro-1-methyl-3-(methylsulfonamido)-1H-indazol-7-yl)-4-oxo-7-(o-tolyl)-3,4-dihydroquinazolin-2-yl)-2-(3,5-difluorophenyl)ethyl)-2-((3bS,4aR)-3-(difluoromethyl)-5,5-difluoro-3b,4,4a,5-tetrahydro-1H-cyclopropa[3,4]cyclopenta[1,2-c]pyrazol-1-yl)acetamide], for which the concentration for a half-maximal effect (EC50) in data set [1] amounted to 0.73 nM. In addition, the CC50 at 4 day in data set [2] is above 1000 nM.

For `COc1ccnc(-c2ccc3c(=O)n(-c4ccc(Cl)c5c(NS(C)(=O)=O)nn(C)c45)c([C@H](Cc4cc(F)cc(F)c4)NC(=O)Cn4nc(C(F)F)c5c4C(F)(F)[C@@H]4C[C@H]54)nc3c2)n1` (atropisomer, axis not shown; (aR)) [Example 117, N-((S)-1-(3-(4-chloro-1-methyl-3-(methylsulfonamido)-1H-indazol-7-yl)-7-(4-methoxypyrimidin-2-yl)-4-oxo-3,4-dihydroquinazolin-2-yl)-2-(3,5-difluorophenyl)ethyl)-2-((3bS,4aR)-3-(difluoromethyl)-5,5-difluoro-3b,4,4a,5-tetrahydro-1H-cyclopropa[3,4]cyclopenta[1,2-c]pyrazol-1-yl)acetamide], the EC50 in data set [1] was determined as 0.058 nM. For the same compound, the CC50 at 4 day in data set [2] is above 500 nM.

The values are drawn from patent publication US11505543B2, “4-oxo-3,4-dihydroquinazoline compounds as inhibitors of human immunodeficiency virus replication” (VIIV HEALTHCARE UK (NO.5) LIMITED, priority 2018, dated 2022).
